Test results published in US6764826B2, “Inhibitors of C-reactive protein induced inflammation” (Board of Regents, The University of Texas System, priority 2000, dated 2004).
“Also recorded” adds a separate entry of the source.

Key:
MCP-1 Induction by CRP = test: Modulation of CRP effects by statin, aspirin and PPAR activators: MCP-1 secretion in HUVEC, sandwich ELISA; assay type: cell-based, human; conditions: for effect on induction of MCP-1 by CRP (in words): test substance 10 μM
Experimental: Experiments were performed in HUVEC. […] After 2 hours, the cells were incubated with C-reactive protein or with IL-1β 10 ng/mL for 24 hours. […] Secretion of MCP-1 and RANTES were assessed by sandwich ELISA (Colorimetric Quantikine, by R and D Systems). All determinations were performed in duplicate. Data were expressed as mean±SD of 5-6 separate experiments. Cell viability was assessed by staining with trypan blue.

HUVEC [1] = test: RANTES secretion by HUVEC, sandwich ELISA; assay type: cell-based, human
Experimental: (§1) Experiments were performed in HUVEC, cultured in 12-well plates in basic endothelial cell medium CS-C, with 10 mM HEPES and 15% human serum (Sigma). Culture supernatants were collected 6-24 hours after stimulation with either IL-1β or CRP, at the concentration indicated. Secretion of MCP-1 and RANTES were assessed by sandwich ELISA (Colorimetric Quantikine, by R and D Systems). All determinations were performed in duplicate. Data were expressed as mean±SD of 5-6 separate experiments. Cell viability was assessed by staining with trypan blue.

HUVEC [2] = test: MCP-1 secretion by HUVEC, sandwich ELISA; assay type: cell-based, human
Experimental: as §1

[3] = test system: human umbilical vein endothelial cells (HUVEC); test: Adhesion molecule expression in HUVEC by FACS, in the presence of serum; assay type: cell-based; conditions: 24-hour incubation, HUVEC with human serum
[4] = test system: human umbilical vein endothelial cells (HUVEC); test: Adhesion molecule expression in HUVEC by FACS, serum-free medium; assay type: cell-based
Experimental: HUVEC were incubated with human C-reactive protein similar to Example 2 except in the absence of serum. Cells were detached by incubation with 10 mmol/L EDTA in PBS (without trypsin), washed with PBS buffer and suspended in PBS with 0.1% sodium azide. Cell were then stained with R-Phycoerythrin labeled monoclonal antibodies (Pharmingen) against the adhesion molecules VCAM-1 (CD106) or ICAM-1 (CD54) or with Phycoerythrin labeled isotype IgG as control. For detection of E-selectin, HUVEC were incubated for 6 hours with C-reactive protein and then stained with a FITC labeled monoclonal antibody against E-selectin (RandD Systems) or the appropriate isotype control (Pasceri et al., 2000). R-Phycoerythrin labeled monoclonal antibodies (Pharmingen) against the C-reactive protein receptors FCγRI and FCγRII (Marnell et al., 1995; Bharadwaj et al., 1999) were also used.
(§2) The staining procedure was performed on ice for 30 minutes, followed by washing. The fluorescence intensity of 9000 cells for each sample was quantified by a FACS CaliburTM analyser (Becton Dickinson). All experiments were performed in triplicate.

[5] = test system: human umbilical vein endothelial cells (HUVEC); test: Adhesion molecule expression in HUVEC by FACS, in the presence of serum; assay type: cell-based
Experimental: All experiments were performed on human umbilical vein endothelial cells (HUVEC, from Cascade Biology). HUVEC were grown in M199 medium with endothelial cell growth supplement, heparin and 15% fetal bovine serum or human serum. Cells were used at passage 2 to 4.
HUVEC were incubated with human C-reactive protein at the concentration indicated for 24 hours. Cells were detached by incubation with 10 mmol/L EDTA in PBS (without trypsin), washed with PBS buffer and suspended in PBS with 1% FBS and 0.1% sodium azide. Cell were then stained with R-Phycoerythrin labeled monoclonal antibodies (Pharmingen) against the adhesion molecules VCAM-1 (CD106) or ICAM-1 (CD54) or with Phycoerythrin labeled isotype IgG as control. For detection of E-selectin, HUVEC were incubated for 6 hours with C-reactive protein and then stained with a FITC labeled monoclonal antibody against E-selectin (RandD Systems) or the appropriate isotype control (Pasceri et al., 2000). R-Phycoerythrin labeled monoclonal antibodies (Pharmingen) against the C-reactive protein receptors FCγRI and FCγRII (Marnell et al., 1995; Bharadwaj et al., 1999) were also used.
as §2

[6] = CRP 100 μg/mL + test substance 50 μmol/L
[7] = CRP 100 μg/mL + test substance 100 μmol/L
[8] = CRP 100 μg/mL + test substance 200 μmol/L
[9] = Homo sapiens, HUVEC, CRP 100 μg/mL + test substance 100 μmol/L
[10] = CRP 100 μg/mL + test substance 10 μmol/L
[11] = CRP 100 μg/mL + test substance 20 μmol/L
[12] = CRP 100 μg/mL + test substance 1 mmol/L
[13] = C-reactive protein 10 μg/mL, 24-hour incubation, HUVEC with human serum

CC1(COc2ccc(CC3SC(=O)NC3=O)cc2)CCCCC1 (stereo not shown) [ciglitazone]
-Fold Increase in MCP-1 conc. (MCP-1 Induction by CRP; [6]): 4.8 ± 1.5 -Fold
MCP-1 conc. (MCP-1 Induction by CRP; [6]): 10.2 ± 4.6 ng/mL
-Fold Increase in MCP-1 conc. (MCP-1 Induction by CRP; [7]): 4.1 ± 1.0 -Fold
MCP-1 conc. (MCP-1 Induction by CRP; [7]): 8.7 ± 3.4 ng/mL
-Fold Increase in MCP-1 conc. (MCP-1 Induction by CRP; [8]): 2.7 ± 0.8 -Fold
MCP-1 conc. (MCP-1 Induction by CRP; [8]): 5.9 ± 2.5 ng/mL
MCP-1 secretion, % of maximal CRP-induced response at 50 µM (MCP-1 Induction by CRP; Homo sapiens, HUVEC, CRP 100 μg/mL + test substance 50 μmol/L): 74%
MCP-1 secretion, % of maximal CRP-induced response at 100 µM (MCP-1 Induction by CRP; [9]): 65%
MCP-1 secretion, % of maximal CRP-induced response at 200 µM (MCP-1 Induction by CRP; Homo sapiens, HUVEC, CRP 100 μg/mL + test substance 200 μmol/L): 42%

Cc1cccc(Nc2cc(Cl)nc(SCC(=O)O)n2)c1C [Wy 14649]
% of Maximal Response (MCP-1 Induction by CRP; [10]): 101%
-Fold Increase in MCP-1 conc. (MCP-1 Induction by CRP; [10]): 6.4 ± 2.1 -Fold
MCP-1 conc. (MCP-1 Induction by CRP; [10]): 13.9 ± 6.0 ng/mL
% of Maximal Response (MCP-1 Induction by CRP; [7]): 30%
-Fold Increase in MCP-1 conc. (MCP-1 Induction by CRP; [7]): 1.9 ± 0.9 -Fold
MCP-1 conc. (MCP-1 Induction by CRP; [7]): 4.2 ± 2.2 ng/mL
effect on induction of MCP-1 by CRP (in words) (MCP-1 Induction by CRP): no effect
effect on secretion of MCP-1 induced by CRP (in words) (MCP-1 Induction by CRP; test substance 100 μM): completely inhibited

Cc1c(C)c2c(c(C)c1O)CCC(C)(COc1ccc(CC3SC(=O)NC3=O)cc1)O2 (stereo not shown) [troglitazone]
-Fold Increase in MCP-1 conc. (MCP-1 Induction by CRP; [11]): 5.2 ± 1.7 -Fold
MCP-1 conc. (MCP-1 Induction by CRP; [11]): 11.4 ± 5.2 ng/mL
MCP-1 secretion, % of maximal CRP-induced response at 20 µM (MCP-1 Induction by CRP; Homo sapiens, HUVEC, CRP 100 μg/mL + test substance 20 μmol/L): 83%

interleukin-1: Interleukin-1 provided by RandD systems; a well known activator of endothelial cells
RANTES expression (HUVEC [1]; Interleukin-1β 10 ng/mL): did not induce
MCP-1 response in absence of serum (HUVEC [2]; IL-1β, serum-free medium): absence of serum did not change the response
MCP-1 concentration (HUVEC [2]; Interleukin-1β 10 ng/mL, 15% human serum): 8.6 ± 3.7 ng/mL
E-selectin expression [3]: no increase
expression of adhesion molecules ([4]; interleukin-1, serum-free medium): able to induce adhesion molecules
induction of adhesion molecules expression compared with C-reactive protein 10 μg/mL ([5]; interleukin-1 10 ng/mL, same time-intervals (24-hour; 6-hour for E-selectin), HUVEC with human serum): similar

CC(C)OC(=O)C(C)(C)Oc1ccc(C(=O)c2ccc(Cl)cc2)cc1 [fenofibrate]
-Fold Increase in MCP-1 conc. (MCP-1 Induction by CRP; [7]): 0.9 ± 0.2 -Fold
MCP-1 conc. (MCP-1 Induction by CRP; [7]): 2.1 ± 0.6 ng/mL
MCP-1 secretion, % of maximal CRP-induced response at 100 µM (MCP-1 Induction by CRP; [9]): 15%

CCCCC/C=C/C=C1/C(=O)C=C[C@@H]1C/C=C\CCCC(=O)O [15d-PGJ2, 15-deoxy-^Δ12,14-prostaglandin J2]
% of Maximal Response (MCP-1 Induction by CRP; [10]): 24%
-Fold Increase in MCP-1 conc. (MCP-1 Induction by CRP; [10]): 1.5 ± 0.6 -Fold
MCP-1 conc. (MCP-1 Induction by CRP; [10]): 3.4 ± 1.6 ng/mL
effect on induction of MCP-1 by CRP (in words) (MCP-1 Induction by CRP): almost completely abolished

CC(=O)Oc1ccccc1C(=O)O [aspirin]
-Fold Increase in MCP-1 conc. (MCP-1 Induction by CRP; [7]): 6.7 ± 1.9 -Fold
MCP-1 conc. (MCP-1 Induction by CRP; [7]): 14.6 ± 6.7 ng/mL
-Fold Increase in MCP-1 conc. (MCP-1 Induction by CRP; [12]): 6.4 ± 1.8 -Fold
MCP-1 conc. (MCP-1 Induction by CRP; [12]): 13.7 ± 6.7 ng/mL
MCP-1 secretion, % of maximal CRP-induced response at 100 µM (MCP-1 Induction by CRP; [9]): 104%
MCP-1 secretion, % of maximal CRP-induced response at 1000 µM (MCP-1 Induction by CRP; Homo sapiens, HUVEC, CRP 100 μg/mL + test substance 1 mmol/L): 102%
effect on the effects of C-reactive protein (MCP-1 induction, in words) (MCP-1 Induction by CRP; high concentration, up to 1 mM): did not inhibit

B1: CRP: Recombinant human C-reactive protein purchased from Biochem; acute phase reactant protein (protein, UniProt P02741 19-224, looked up)
C-reactive protein: QTDMSRKAFVFPKESDTSYVSLKAPLTKPLKAFTVCLHFYTELSSTRGYSIFSYATKRQDNEILIFWSKDIGYSFTVGGSEILFEVPEVTVAPVHICTSWESASGIVEFWVDGKPRVRKSLKKGYTVGAEASIILGQEQDSFGGNFEGSQSLVGDIGNVNMWDFVLSPDEINTIYLGGPFSPNVLNWRALKYEVQGEVFTKPQLWP
Secretion of RANTES (HUVEC [1]; C-reactive protein 100 μg/mL, 15% human serum): not increased
CRP concentration already giving significant induction of MCP-1 (HUVEC [2]; 24-hour incubation, 15% human serum): 5 µg/mL
MCP-1 concentration (HUVEC [2]; CRP 10 μg/mL, 24-hour incubation, 15% human serum, baseline 1.1±0.5): 2.4 ± 0.9 ng/mL
MCP-1 concentration (HUVEC [2]; CRP 100 μg/mL (peak), 24-hour incubation, 15% human serum): 9.7 ± 4.8 ng/mL
MCP-1 concentrations (HUVEC [2]; CRP 100 μg/mL, 24-hour, serum-free medium): did not induce a significant increase
fold-increase of MCP-1 secretion (HUVEC [2]; CRP 100 μg/mL, 24-hour, versus human albumin 100 μg/mL, 15% human serum): 7 fold-increase
E-selectin expression [3]: no increase
% of Maximal Response (MCP-1 Induction by CRP; CRP 100 μg/mL alone, 24 hours): 100%
-Fold Increase in MCP-1 conc. (MCP-1 Induction by CRP; CRP 100 μg/mL alone, 24 hours): 6.3 ± 1.8 -Fold
MCP-1 conc. (MCP-1 Induction by CRP; CRP 100 μg/mL alone, 24 hours): 13.6 ± 5.4 ng/mL
expression of adhesion molecules (ICAM-1, VCAM-1, E-selectin) ([4]; C-reactive protein 100 μg/mL, 24-hour (6-hour for E-selectin), serum-free medium): could not induce; also recorded: did not induce
E-selectin expression ([5]; C-reactive protein 10 μg/mL, 6-hour incubation, HUVEC with human serum): significant increase
ICAM-1 expression [5, 13]: large increase
VCAM-1 expression [5, 13]: significant increase
VCAM-1 expression ([5]; C-reactive protein 10 μg/mL, 24-hour incubation, HUVEC with human serum, listed as recombinant C-reactive protein): large increase
further increase in adhesion molecules expression on increase of concentration ([5]; C-reactive protein up to 100 μg/mL, compared with 10 μg/mL, 4th passage cells, 15% human serum): only a modest further increase
further adhesion molecules induction on increase of concentration ([5]; C-reactive protein up to 200 μg/mL, compared with 10 μg/mL): only a modest further adhesion molecules induction
C-reactive protein concentration at which adhesion molecule expression is nearly maximum ([5]; dose response, HUVEC with 15% human serum): 10 µg/mL
